From patent publication US5086074A, “1-aminomethyl-1,2,3,4-tetrahydronaphthalenes” (Abbott Laboratories, priority 1990, dated 1992)
Structures can show the parent of a compound that is named as a salt.

How the values were obtained:
[1] = target: T1, alpha-1-receptor (Rattus norvegicus, UniProt P15823); experiment: Radioligand binding, alpha-1 adrenoceptor, rat liver homogenates, [3H]-prazosin; details: rat liver homogenates, [3H]-prazosin; read-out: Ki alpha-1
T1 construct: rat liver homogenates; from tissue; host or cells: rat liver homogenate
T1 sequence (P15823 1-515): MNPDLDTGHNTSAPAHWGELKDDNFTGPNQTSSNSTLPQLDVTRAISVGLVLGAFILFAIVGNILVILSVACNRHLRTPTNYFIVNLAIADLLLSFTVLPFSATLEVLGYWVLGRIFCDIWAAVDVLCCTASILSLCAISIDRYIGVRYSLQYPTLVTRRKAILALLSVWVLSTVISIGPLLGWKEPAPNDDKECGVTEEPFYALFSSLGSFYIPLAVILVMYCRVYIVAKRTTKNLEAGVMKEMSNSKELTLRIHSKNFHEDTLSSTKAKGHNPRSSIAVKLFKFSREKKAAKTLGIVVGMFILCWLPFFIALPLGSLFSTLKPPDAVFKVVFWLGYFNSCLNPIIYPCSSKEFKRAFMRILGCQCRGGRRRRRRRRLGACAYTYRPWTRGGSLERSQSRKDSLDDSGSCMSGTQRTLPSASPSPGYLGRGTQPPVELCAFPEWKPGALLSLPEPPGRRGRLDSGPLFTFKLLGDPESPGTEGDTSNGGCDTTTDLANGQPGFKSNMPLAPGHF
Procedure: (§1) The compounds were assessed for alpha-adrenergic receptor subtype selectivity by use of radioligand binding techniques as described previously (DeBernardis et.al. J. Med. Chem. 28, 1398 (1985)).

[2] = test system: alpha-2-receptor; experiment: Radioligand binding, alpha-2 adrenoceptor, rat cerebral cortices, [3H]-rauwolscine; details: ratio Ki alpha-1/Ki alpha-2
Procedure: as §1

[3] = test system: norepinephrine uptake; experiment: Biogenic amine uptake inhibition in rat brain synaptosomes, norepinephrine; format: biochemical, rat (Sprague-Dawley); details: tritiated amine 0.1 μM, 37° C., 4 minutes; read-out: Biogenic Amine Uptake Inhibition IC50 Norephinephrine
Procedure: (§2) The ability of compounds of the invention to inhibit biogenic amine uptake is determined as outlined below.
(§3) Sprague-Dawley derived rats of either sex, weighing about 180-250 g, were killed by decapitation. The brains were immediately removed, placed on a glass plate chilled over crushed ice and dissected according to a modification of the method of Glowinski and Iversen (J. Neurochem. 13, 655-669, 1966). First, the rhombencephalon was separated by transverse section and discarded. The remaining tissue was bisected by a midline sagittal cut. The hypothalamus was removed using the anterior and posterior reference points, respectively. The hippocampus was peeled away and discarded and the striata were exposed and removed. Frontal cortical tissue was dissected from remaining brain structures. […] The tissues were placed in a cold Potter-Elvehjem glass homogenizer with 5 (cortex) or 10 (hypothalamus) and 20 (striatum) volumes of ice-cold 0.32M sucrose, pH 7.0 and homogenized by hand. The homogenate was centrifuged at 2500 rpm in a GLC centrifuge for 10 minutes in a refrigerated room. The supernatant fraction containing the synaptosomes was decanted, mixed thoroughly, and kept on crushed ice for use in the uptake studies.

[4] = test system: dopamine uptake; experiment: Biogenic amine uptake inhibition in rat brain synaptosomes, dopamine; format: biochemical, rat (Sprague-Dawley); details: tritiated amine 0.1 μM, 37° C., 4 minutes
Procedure: as §2, §3

[5] = test system: serotonin uptake; experiment: Biogenic amine uptake inhibition in rat brain synaptosomes, serotonin; format: biochemical, rat (Sprague-Dawley); details: tritiated amine 0.1 μM, 37° C., 4 minutes
Procedure: as §2, §3

[6] = test system: intraocular pressure of rabbits; experiment: Effects of topically administered compounds on intraocular pressure of rabbits; format: in vivo, rabbit (New Zealand albino); details: 0.3% soln., topical to cornea
Procedure: The effect on intraocular pressure of the compounds of the invention can be determined in rabbits by using the following method.
a. Method The intraocular pressure lowering effects of the compounds were evaluated in unanesthetized, male albino, New Zealand rabbits weighing 2.0 to 2.5 kg. The rabbits were placed in Plas Labs restraining devices for the duration of the experiment. Intraocular pressure (IOP) was measured with a Bausch and Lomb Applamatic Tonometer and recorded as the average of three individual readings at each time point in the experiment. Baseline IOP values were established at three time points separated by 30 minutes. Each compound or vehicle was applied topically to the cornea in a volume of 0.1 ml to one eye in each six rabbits. The contralateral eye was untreated. IOP was recorded at 5, 15, 30, 60 and 90 minutes after dosing.

| Compound | Ki [1] | alpha-2 - Selectivity Ki alpha-1/Ki alpha-2 [2] | other results |
| --- | --- | --- | --- |
| CN(c1ccc2c(c1)CCCC2CN1CCC(c2ccccc2)C1)S(C)(=O)=O (stereo not shown) [Example 193, 6-(N-methylmethylsulfonamido)-1-(3-phenylpyrrolidino-1methyl)tetralin hydrochloride] | 121 nM | 93 |  |
| Fc1ccc2c(c1)CCCC2CN1CCC(c2ccccc2)C1 (stereo not shown) [Example 148, 6-Fluoro-1-(3-phenylpyrrolidino-1-methyl) tetralin methanesulfonate] | 126 nM | 19 |  |
| COc1ccc2c(c1)CCC2CN1CCC(c2cccs2)C1 (stereo not shown) [Example 151, 5-Methoxy-1-(3-(2-thienyl)pyrrolidino-1-methyl) indane hydrochloride] | 177 nM | 71 |  |
| CN(CCc1cccc(F)c1)CC1CCCc2c1ccc1c2OCCO1 (stereo not shown) [Example 167, 1-((N-Methylamino)methyl-N-(2-m-fluorophenethyl))-5,6-ethylenedioxy tetralin methanesulfonate] | 357 nM | 85 |  |
| COc1ccc2c(c1)CCC2CN1CCC(c2cccc(F)c2)C1 (stereo not shown) [Example 153, 5-Methoxy-1-(3-(m-fluorophenyl)pyrrolidino-1-methyl) indane hydrochloride] | 58 nM | 7 |  |
| CCOc1ccc2c(c1)CCCC2CN(C)CCc1cccc(N)c1 (stereo not shown) [Example 69, 1-((N-Methylamino)methyl-N-(2-(m-aminophenyl)ethyl))6-ethoxy tetralin dihydrochloride] | 1270 nM | 98 |  |
| 8-Fluoro-5,6-methylenedioxy-1-(3-phenylpyrrolidino-1-methyl) tetralin hydrochloride [Example 160] |  |  | IC50 [3]: 991 nM; IC50 [4]: 2930 nM; IC50 [5]: 1840 nM |
| CN(CCc1cccs1)CC1CCCc2c(Cl)cccc21 (stereo not shown) [Example 129, 1-((N-Methylamino)methyl-N-(2-(2-thieny)ethyl))5-chloro tetralin hydrochloride] | 198 nM | 55 |  |
| CN(CCc1ccccc1)CC1CCCc2cc(O)ccc21 (stereo not shown) [11 (HCl salt)] |  |  | % Change in Intraocular Pressure After Treatment Compared to Untreated Eye in Rabbits ([6]; 5 minutes): -38%; % Change in Intraocular Pressure After Treatment Compared to Untreated Eye in Rabbits ([6]; 15 minutes): -55%; % Change in Intraocular Pressure After Treatment Compared to Untreated Eye in Rabbits ([6]; 30 minutes): -54%; % Change in Intraocular Pressure After Treatment Compared to Untreated Eye in Rabbits ([6]; 60 minutes): -44%; % Change in Intraocular Pressure After Treatment Compared to Untreated Eye in Rabbits ([6]; 90 minutes): -20% |
| COc1ccc2c(c1)CCCC2CN1CCC(c2ccccc2)C1 (stereo not shown) [Example 121, 6-Methoxy-1-(3-phenylpyrrolidino-1-methyl) tetralin hydrochloride] | 95 nM | 95 |  |
| COc1ccc(C)c2c1CCCC2CN(C)CCc1cccs1 (stereo not shown) [Example 36, 1-((N Methylamino)methyl-N-(2-(2-thienyl)ethyl))-5-methoxy-8-methyl tetralin hydrochloride] | 655 nM | 95 |  |
| COc1ccc2c(c1)CCCC2CN(C)CCC1CCCS1 (stereo not shown) [Example 6h, 1-((N-methylamino)methyl-N-(2-(2-tetrahydrothienyl)ethyl)) 6-methoxy tetralin hydrochloride] | 1510 nM | 430 |  |
| c1ccc(C2CCN(CC3CCCc4c3ccc3c4OCO3)C2)cc1 (stereo not shown) [Example 143a, 5,6-Methylenedioxy-1-(3-phenylpyrrolidino-1-methyl) tetralin methanesulfonate] | 51 nM | 43 |  |
| COc1cccc2c1CCCC2CN1CCC(c2cccs2)C1 (stereo not shown) [Example 146, hydrochloride] | 170 nM | 35 |  |
| CN(CCc1cccc(F)c1)CC1CCCc2cc(O)ccc21 (stereo not shown) [Example 10, 1-((N-Methylamino)methyl-N-(2-(m-fluorophenyl)ethyl))-6-hydroxy tetralin hydrochloride] |  |  | % Change in Intraocular Pressure After Treatment Compared to Untreated Eye in Rabbits ([6]; 5 minutes): -45%; % Change in Intraocular Pressure After Treatment Compared to Untreated Eye in Rabbits ([6]; 15 minutes): -31%; % Change in Intraocular Pressure After Treatment Compared to Untreated Eye in Rabbits ([6]; 30 minutes): -25%; % Change in Intraocular Pressure After Treatment Compared to Untreated Eye in Rabbits ([6]; 60 minutes): -36%; % Change in Intraocular Pressure After Treatment Compared to Untreated Eye in Rabbits ([6]; 90 minutes): -23% |
